Measurements from US9522886B2, “Pyridine derivatives” (Hoffmann-La Roche Inc., priority 2012, dated 2016).
Read-outs that look alike come from different tables or passages of the source.

What was measured:
[1] = target: human CB1 receptors (Homo sapiens (Human), UniProt P21554); assay: cAMP assay, CHO cells expressing human CB1 receptors; assay type: cell-based
Method: (§1) CHO cells expressing human CB1 or CB2 receptors are seeded 17-24 hours prior to the experiment 50.000 cells per well in a black 96 well plate with flat clear bottom (Corning Costar #3904) in DMEM (Invitrogen No. 31331), 1×HT supplement, with 10% fetal calf serum and incubated at 5% CO2 and 37° C. in a humidified incubator. The growth medium was exchanged with Krebs Ringer Bicarbonate buffer with 1 mM IBMX and incubated at 30° C. for 30 min. Compounds were added to a final assay volume of 100 μl and incubated for 30 min at 30° C. Using the cAMP-Nano-TRF detection kit the assay (Roche Diagnostics) was stopped by the addition of 50 μl lysis reagent (Tris, NaCl, 1.5% Triton X100, 2.5% NP40, 10% NaN3) and 50 μl detection solutions (20 μM mAb Alexa700-cAMP 1:1, and 48 μM Ruthenium-2-AHA-cAMP) and shaken for 2 h at room temperature. The time-resolved energy transfer is measured by a TRF reader (Evotec Technologies GmbH), equipped with a ND:YAG laser as excitation source. The plate is measured twice with the excitation at 355 nm and at the emission with a delay of 100 ns and a gate of 100 ns, total exposure time 10 s at 730 (bandwidth 30 nm) or 645 nm (bandwidth 75 nm), respectively.
(§2) EC50 values were determined using Activity Base analysis (ID Business Solution, Limited).

[2] = target: human CB2 receptors (Homo sapiens (Human), UniProt P34972); assay: cAMP assay, CHO cells expressing human CB2 receptors; assay type: cell-based; settings: functional cAMP assay, CHO cells expressing human CB2; read-out: human CB2 EC50
Chain of human CB2 receptors (P34972 whole entry): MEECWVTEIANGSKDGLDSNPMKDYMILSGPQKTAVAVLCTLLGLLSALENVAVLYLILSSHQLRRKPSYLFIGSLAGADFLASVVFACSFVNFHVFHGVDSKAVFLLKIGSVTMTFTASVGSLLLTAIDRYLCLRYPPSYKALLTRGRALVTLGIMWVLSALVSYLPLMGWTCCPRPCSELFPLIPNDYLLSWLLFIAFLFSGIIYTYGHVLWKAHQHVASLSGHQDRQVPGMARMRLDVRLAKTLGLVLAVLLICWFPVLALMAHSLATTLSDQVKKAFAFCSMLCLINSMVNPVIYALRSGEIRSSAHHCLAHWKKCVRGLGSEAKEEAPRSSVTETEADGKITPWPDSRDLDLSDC
Method: as §1, §2

[3] = functional cAMP assay, CHO cells expressing human CB1, read-out: human CB1 EC50

Chain of human CB1 receptors (P21554 whole entry): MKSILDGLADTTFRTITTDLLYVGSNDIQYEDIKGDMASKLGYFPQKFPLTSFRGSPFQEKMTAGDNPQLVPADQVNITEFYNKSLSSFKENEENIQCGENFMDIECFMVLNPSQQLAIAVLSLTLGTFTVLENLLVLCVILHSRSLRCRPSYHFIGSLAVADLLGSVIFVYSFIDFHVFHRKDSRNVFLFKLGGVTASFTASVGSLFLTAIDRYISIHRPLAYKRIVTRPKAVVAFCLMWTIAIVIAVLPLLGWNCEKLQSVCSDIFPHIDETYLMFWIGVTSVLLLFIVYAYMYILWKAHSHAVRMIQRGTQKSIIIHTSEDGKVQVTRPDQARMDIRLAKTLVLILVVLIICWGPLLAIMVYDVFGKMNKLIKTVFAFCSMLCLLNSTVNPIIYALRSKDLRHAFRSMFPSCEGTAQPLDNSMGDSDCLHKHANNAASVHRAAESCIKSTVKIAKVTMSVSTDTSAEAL

| SMILES | EC50 [1] [nM] | EC50 [2] [nM] | EC50 [1, 3] [nM] |
| --- | --- | --- | --- |
| NC(=O)[C@@H]1CCCC[C@@H]1NC(=O)c1ccc(C2CC2)c(OCC2CC2)n1 (relative stereo) [Example 12, 5-Cyclopropyl-6-cyclopropylmethoxy-pyridine-2-carboxylic acid (rel-(1S,2R)-2-carbamoyl-cyclohexyl)-amide] | > 10000 | – | – |
| CCCCC(CC(N)=O)NC(=O)c1ccc(C2CC2)c(OCC2CC2)n1 (single isomer, unassigned; (+)) [Example 10, (+)-5-Cyclopropyl-6-cyclopropylmethoxy-pyridine-2-carboxylic acid (1-carbamoylmethyl-pentyl)-amide] | – | 0.3 | – |
| NC(=O)CC(NC(=O)c1ccc(C2CC2)c(OCC2CC2)n1)C1CCCCC1 (single isomer, unassigned; (+)) [Example 18, (+)-5-Cyclopropyl-6-cyclopropylmethoxy-pyridine-2-carboxylic acid (2-carbamoyl-1-cyclohexyl-ethyl)-amide] | – | 1.5 | > 10000 |
| NC(=O)CC(NC(=O)c1ccc(C2CC2)c(OCC2CC2)n1)C1CC1 (single isomer, unassigned; (+)) [Example 28, (+)-5-Cyclopropyl-6-cyclopropylmethoxy-pyridine-2-carboxylic acid (2-carbamoyl-1-cyclopropyl-ethyl)-amide] | – | 3 | > 10000 |
| NC(=O)CC(NC(=O)c1ccc(C2CC2)c(OCC2CC2)n1)C(F)(F)F (single isomer, unassigned; (+)) [Example 32, (+)-5-Cyclopropyl-6-cyclopropylmethoxy-pyridine-2-carboxylic acid (1-carbamoylmethyl-2,2,2-trifluoro-ethyl)-amide] | – | 137 | > 10000 |
| NC(=O)CC(NC(=O)c1ccc(N2CC(F)(F)C2)c(OCC2CC2)n1)C1CCOCC1 (single isomer, unassigned; (+)) [Example 59, (+)-6-Cyclopropylmethoxy-5-(3,3-difluoro-azetidin-1-yl)-pyridine-2-carboxylic acid [2-carbamoyl-1-(tetrahydro-pyran-4-yl)-ethyl]-amide] | – | – | > 10000 |
| CCCCC(CC(N)=O)NC(=O)c1ccc(C2CC2)c(OCC2CC2)n1 (single isomer, unassigned; (-)) [Example 9, (−)-5-Cyclopropyl-6-cyclopropylmethoxy-pyridine-2-carboxylic acid (1-carbamoylmethyl-pentyl)-amide] | – | 2.1 | – |
| NC(=O)CC(NC(=O)c1ccc(C2CC2)c(OCC2CC2)n1)C1CCCCC1 (single isomer, unassigned; (-)) [Example 17, (−)-5-Cyclopropyl-6-cyclopropylmethoxy-pyridine-2-carboxylic acid (2-carbamoyl-1-cyclohexyl-ethyl)-amide] | – | 6.2 | > 10000 |
| NC(=O)CC(NC(=O)c1ccc(C2CC2)c(OCC2CC2)n1)C1CC1 (single isomer, unassigned; (-)) [Example 27, (−)-5-Cyclopropyl-6-cyclopropylmethoxy-pyridine-2-carboxylic acid (2-carbamoyl-1-cyclopropyl-ethyl)-amide] | – | 1.4 | > 10000 |
| NC(=O)CC(NC(=O)c1ccc(C2CC2)c(OCC2CC2)n1)C(F)(F)F (single isomer, unassigned; (-)) [Example 31, (−)-5-Cyclopropyl-6-cyclopropylmethoxy-pyridine-2-carboxylic acid (1-carbamoylmethyl-2,2,2-trifluoro-ethyl)-amide] | – | 8.8 | > 10000 |
| NC(=O)CC(NC(=O)c1ccc(C2CC2)c(OCC2CC2)n1)C1CCOCC1 (single isomer, unassigned; (-)) [Example 34, (−)-5-Cyclopropyl-6-cyclopropylmethoxy-pyridine-2-carboxylic acid [2-carbamoyl-1-(tetrahydro-pyran-4-yl)-ethyl]-amide] | – | 2.2 | > 10000 |
| NC(=O)CC(NC(=O)c1ccc(N2CC(F)(F)C2)c(OCC2CC2)n1)C1CCOCC1 (single isomer, unassigned; (-)) [Example 58, (−)-6-Cyclopropylmethoxy-5-(3,3-difluoro-azetidin-1-yl)-pyridine-2-carboxylic acid [2-carbamoyl-1-(tetrahydro-pyran-4-yl)-ethyl]-amide] | – | – | > 10000 |
| NC(=O)[C@@H]1CCCC[C@@H]1NC(=O)c1ccc(C2CC2)c(OCC2CC2)n1 (stereo in doubt) [Example 15, (+)-cis-5-Cyclopropyl-6-cyclopropylmethoxy-pyridine-2-carboxylic acid (2-carbamoyl-cyclohexyl)-amide] | > 10000 | – | – |
| NC(=O)[C@H]1CCCC[C@@H]1NC(=O)c1ccc(C2CC2)c(OCC2CC2)n1 (stereo in doubt) [Example 16, (−)-trans-5-Cyclopropyl-6-cyclopropylmethoxy-pyridine-2-carboxylic acid (2-carbamoyl-cyclohexyl)-amide] | – | – | 172 |
| NC(=O)[C@@H]1CCCC[C@@H]1NC(=O)c1ccc(N2CC(F)(F)C2)c(OCC2CC2)n1 (stereo in doubt) [Example 20, (+)-cis-6-Cyclopropylmethoxy-5-(3,3-difluoro-azetidin-1-yl)-pyridine-2-carboxylic acid (2-carbamoyl-cyclohexyl)-amide] | – | 15.8 | > 10000 |
| CCOC(=O)CC1(NC(=O)c2ccc(C3CC3)c(OCC3CC3)n2)COC1 [Example 1, {3-[(5-Cyclopropyl-6-cyclopropylmethoxy-pyridine-2-carbonyl)-amino]-oxetan-3-yl}-acetic acid ethyl ester] | – | 53.7 | > 10000 |
| CC(C)CC(CC(=O)OC(C)(C)C)NC(=O)c1ccc(N2CC(F)(F)C2)c(OCC2CC2)n1 (stereo not drawn) [Example 2, tert-Butyl 3-({[6-(cyclopropylmethoxy)-5-(3,3-difluoroazetidin-1-yl)pyridin-2-yl]carbonyl}amino)-5-methylhexanoate] | – | 676 | > 10000 |
| CN1CC(NC(=O)c2ccc(N3CC(F)(F)C3)c(OCC3CC3)n2)CC1=O (stereo not drawn) [Example 3, 6-Cyclopropylmethoxy-5-(3,3-difluoro-azetidin-1-yl)-pyridine-2-carboxylic acid (1-methyl-5-oxo-pyrrolidin-3-yl)-amide] | – | – | > 10000 |
| CCOC(=O)CC(NC(=O)c1ccc(N2CC(F)(F)C2)c(OCC2CC2)n1)c1ccccc1 (stereo not drawn) [Example 4, 3-{[6-Cyclopropylmethoxy-5-(3,3-difluoro-azetidin-1-yl)-pyridine-2-carbonyl]-amino}-3-phenyl-propionic acid ethyl ester] | – | 4.2 | > 10000 |
| CCOC(=O)CC(C)(C)NC(=O)c1ccc(N2CC(F)(F)C2)c(OCC2CC2)n1 [Example 5, 3-{[6-Cyclopropylmethoxy-5-(3,3-difluoro-azetidin-1-yl)-pyridine-2-carbonyl]-amino}-3-methyl-butyric acid ethyl ester] | – | 518 | > 10000 |
| CNC(=O)CC(C)(C)NC(=O)c1ccc(N2CC(F)(F)C2)c(OCC2CC2)n1 [Example 6, 6-Cyclopropylmethoxy-5-(3,3-difluoro-azetidin-1-yl)-pyridine-2-carboxylic acid (1,1-dimethyl-2-methylcarbamoyl-ethyl)-amide] | – | 172 | > 10000 |
| CCCCCC(CC(=O)NC)NC(=O)c1ccc(N2CC(F)(F)C2)c(OCC2CC2)n1 (stereo not drawn) [Example 7, 6-Cyclopropylmethoxy-5-(3,3-difluoro-azetidin-1-yl)-pyridine-2-carboxylic acid (1-methylcarbamoylmethyl-hexyl)-amide] | – | 55.6 | > 10000 |
| CNC(=O)CC(CCc1ccccc1)NC(=O)c1ccc(N2CC(F)(F)C2)c(OCC2CC2)n1 (stereo not drawn) [Example 8, 6-Cyclopropylmethoxy-5-(3,3-difluoro-azetidin-1-yl)-pyridine-2-carboxylic acid (1-methylcarbamoylmethyl-3-phenyl-propyl)-amide] | – | 301 | > 10000 |
| CC(C)[C@@H](CC(N)=O)NC(=O)c1ccc(C2CC2)c(OCC2CC2)n1 [Example 13, 5-Cyclopropyl-6-cyclopropylmethoxy-pyridine-2-carboxylic acid ((R)-1-carbamoylmethyl-2-methyl-propyl)-amide] | – | 5 | – |
| CC(C)[C@H](CC(N)=O)NC(=O)c1ccc(C2CC2)c(OCC2CC2)n1 [Example 14, 5-Cyclopropyl-6-cyclopropylmethoxy-pyridine-2-carboxylic acid ((S)-1-carbamoylmethyl-2-methyl-propyl)-amide] | – | 1.5 | – |
| NC(=O)CC(NC(=O)c1ccc(N2CC(F)(F)C2)c(OCC2CC2)n1)C1CCOCC1 (stereo not drawn) [Example 53, 6-Cyclopropylmethoxy-5-(3,3-difluoro-azetidin-1-yl)-pyridine-2-carboxylic acid [2-carbamoyl-1-(tetrahydro-pyran-4-yl)-ethyl]-amide] | – | – | > 10000 |
| NC(=O)CC1(NC(=O)c2ccc(N3CC(F)(F)C3)c(OCC3CC3)n2)CSC1 [Example 91, N-[3-(2-Amino-2-oxoethyl)thietan-3-yl]-6-(cyclopropylmethoxy)-5-(3,3-difluoroazetidin-1-yl)pyridine-2-carboxamide] | – | – | > 10000 |
